Consider 15 molecules from patent US20150225377A1, “VEGFR3 INHIBITORS” (CANCER THERAPEUTICS CRC PTY LIMITED, priority 2012, published 2015).

The target of this experiment is T1, VEGFR3 (Homo sapiens, UniProt P35916).
T1 construct: host or cells: HMVEC-dLyAD
In words: VEGFR3 Phospho ELISA assay in HMVEC-dLyAD cells, VEGFC stimulated. The settings on record: 1 hour compound, 250 ng/mL VEGFC 10 minutes. In kind it is cell-based. The method, then:
Adult human dermal lymphatic microvascular endothelial cells (HMVEC-dLyAD) (Cat#CC-2810, Lonza) were seeded into clear-bottom, TC treated 12 well plates (Cat #665180, Greiner Bio-One) in EGM-2MV (Cat#CC-3202, Lonza) at 180,000 cells/well (volume 1 mL), and the plates incubated at 37° C. and 5% CO2 for 6 hours. The media was replaced with EBM-2 (Cat #CC-3156, Lonza)+0.1% BSA (Cat#A8412, Sigma) and cells incubated for a further period (overnight at 37° C. and 5% CO2).
96 well Maxisorp immuno plates (Cat #439454, Nunc) were coated with 100 μL of Total VEGFR3 capture antibody (Part #841888, Human Total VEGFR3/FLT4 ELISA Kit, Cat #DYC3491, R&D Systems), or Phospho VEGFR3 Capture antibody (Part #841885, Human Phospho VEGFR3/FLT4 ELISA Kit, Cat#DYC2724, R&D Systems). The plates were covered and incubated at room temperature overnight.
The coating antibody was flicked out and the plates washed three times with Wash Buffer (Phosphate buffered saline (137 mM NaCl, […], […], […], pH 7.2-7.4), 0.05% Tween 20). 300 μL of blocking buffer (5% v/v Tween 20, 5% w/v sucrose in PBS) was then added to wells and plate incubated for 2 hours at room temperature. Blocking solution is flicked out and plates washed three times and tapped dry.
Compound dilution series were prepared in EBM-2 (Cat #CC-3156, Lonza)+0.1% BSA (Cat#A8412, Sigma) with constant 0.1% DMSO concentration. 439 μL of sample or vehicle control was added to the cell monolayers. Cells are treated for 1 hour at 37° C. and 5% CO2. 250 ng/mL Recombinant human VEGFC (Cat #2179-VC, R & D Systems) added to wells and plates incubated for an additional 10 minutes at 37° C. and 5% CO2.
The media and compounds were removed and the cell monolayer washed once in Dulbecco's Phosphate Buffered Saline (Cat #21600-044, Invitrogen). 130 μL of Lysis buffer added to wells and cell lysate harvested and transferred to tubes and stored on ice. Complete lysis buffer was prepared by adding 10 μL Protease Inhibitor Cocktail (Cat #P8340, Sigma-Aldrich), 10 μL PMSF (Phenylmethanesulfonyl fluoride, Cat #P7626, Sigma-Aldrich, prepared as 500 mM DMSO stock) per 1 mL of Phosphosafe™ Extraction Reagent (Cat #71296, Merck).
The harvested samples were then diluted 1:2 in IC Diluent #18 (5% Tween 20/PBS) and 100 μL transferred to the Total and Phospho VEGFR3 coated, blocked and washed 96 well plates and incubated for 2 hours at room temperature. The plates were then washed three times in wash buffer as described above and tapped dry.
For detection of Total VEGFR3100 μL of Detection antibody (Total VEGFR3 Detection Antibody Part#841888 in Total VEGFR3 kit) diluted in IC Diluent #1 (1% w/v BSA (Cat #A7906, Sigma-Aldrich)/PBS) was added to wells and the plate incubated for 2 hours at room temperature. The plate was then washed three times in wash buffer and tapped dry. 100 μL of streptavidin-HPR diluted in IC diluent #1 Streptavidin-HRP, Part #890803 in Total VEGFR3 kit) was added to wells and incubated at room temperature for 20 minutes followed by washing as described above 100 μL Substrate solution (3,3′,5,5′-Tetramethylbenzidine (TMB) Liquid Substrate System for ELISA, Cat #T0440, Sigma-Aldrich) was added and the plate incubated for 20 minutes in the dark at room temperature followed by the addition of 50 μL stop solution (2 M H2SO4).
Total VEGFR3 levels were quantified using a Multiskan Ascent plate reader and Ascent software fitted with 450 nm filter.
For detection of Phospho VEGFR3, 100 μL of Detection antibody (Anti-Phospho-Tyrosine-HRP Detection Antibody, Part #841403 in Phospho VEGFR3 kit) was diluted in IC Diluent #1 (1% w/v BSA/PBS), added to the wells and the plate incubated for 2 hours at room temperature. The plate was then washed three times in wash buffer as described above and tapped dry. […]

Structures are written as SMILES.

T1 sequence (P35916 25-1363): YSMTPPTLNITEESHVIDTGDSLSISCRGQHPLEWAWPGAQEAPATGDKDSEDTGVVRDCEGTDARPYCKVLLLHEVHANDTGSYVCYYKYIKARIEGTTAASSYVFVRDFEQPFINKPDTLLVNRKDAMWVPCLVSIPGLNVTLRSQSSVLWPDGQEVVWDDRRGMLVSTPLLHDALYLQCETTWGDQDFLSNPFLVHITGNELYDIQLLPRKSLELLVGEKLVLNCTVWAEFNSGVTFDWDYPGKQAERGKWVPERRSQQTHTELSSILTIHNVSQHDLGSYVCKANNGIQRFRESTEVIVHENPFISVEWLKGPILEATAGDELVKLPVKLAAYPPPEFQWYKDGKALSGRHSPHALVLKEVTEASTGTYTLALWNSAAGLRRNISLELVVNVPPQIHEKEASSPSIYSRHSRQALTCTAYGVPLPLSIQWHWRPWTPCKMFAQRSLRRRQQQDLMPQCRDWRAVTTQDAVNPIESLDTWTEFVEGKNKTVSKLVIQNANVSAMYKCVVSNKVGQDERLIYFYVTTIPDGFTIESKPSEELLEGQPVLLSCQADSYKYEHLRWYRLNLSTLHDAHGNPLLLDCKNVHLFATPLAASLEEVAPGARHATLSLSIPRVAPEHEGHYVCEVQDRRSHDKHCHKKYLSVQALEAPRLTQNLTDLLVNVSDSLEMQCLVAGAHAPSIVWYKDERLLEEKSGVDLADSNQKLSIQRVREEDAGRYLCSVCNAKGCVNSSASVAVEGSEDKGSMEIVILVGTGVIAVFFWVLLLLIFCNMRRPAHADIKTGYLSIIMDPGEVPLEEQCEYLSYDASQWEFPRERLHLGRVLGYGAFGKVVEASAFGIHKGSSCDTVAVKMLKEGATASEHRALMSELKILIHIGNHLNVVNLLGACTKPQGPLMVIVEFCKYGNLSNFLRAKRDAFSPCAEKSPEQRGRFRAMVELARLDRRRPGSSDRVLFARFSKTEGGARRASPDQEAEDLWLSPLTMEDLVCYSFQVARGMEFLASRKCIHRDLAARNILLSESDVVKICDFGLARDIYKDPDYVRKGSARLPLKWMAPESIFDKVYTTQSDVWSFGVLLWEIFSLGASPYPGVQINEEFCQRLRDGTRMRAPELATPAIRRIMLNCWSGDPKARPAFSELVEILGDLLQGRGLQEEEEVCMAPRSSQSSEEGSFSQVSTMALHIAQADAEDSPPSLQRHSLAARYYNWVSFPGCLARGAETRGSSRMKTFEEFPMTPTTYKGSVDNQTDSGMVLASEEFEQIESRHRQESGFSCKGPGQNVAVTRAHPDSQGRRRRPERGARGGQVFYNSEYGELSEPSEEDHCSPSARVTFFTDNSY

Consider `Cc1cnc(Nc2ccc(N3CCNCC3)cc2)nc1CCc1ccccc1CC(N)=O` [Compound 2, 2-(2-(2-(5-methyl-2-((4-(piperazin-1-yl)phenyl)amino)pyrimidin-4-yl)ethyl)phenyl)acetamide], for which the IC50 was 121 nM.

In the case of `NCc1ccc(Nc2ncc(C(F)(F)F)c(CCc3ccccc3CC(N)=O)n2)cc1` [Compound 3, 2-(2-(2-(2-((4-(Aminomethyl)phenyl)amino)-5-(trifluoromethyl)pyrimidin-4-yl)ethyl)phenyl)acetamide], the midpoint of inhibition, the IC50, lay at 156 nM.

`Cc1cnc(Nc2ccc(C3CCNCC3)nc2)nc1CCc1ccccc1CC(N)=O` [Compound 4, 2-(2-(2-(5-methyl-2-((6-(piperidin-4-yl)pyridin-3-yl)amino)pyrimidin-4-yl)ethyl)phenyl)acetamide] came in with an IC50 of 2220 nM.

Take `Cc1cnc(Nc2ccc(C3CCN(C)CC3)nc2)nc1CCc1ccccc1CC(N)=O` [Compound 5, 2-(2-(2-(5-methyl-2-((6-(1-methylpiperidin-4-yl)pyridin-3-yl)amino)pyrimidin-4-yl)ethyl)phenyl)acetamide]: the IC50 came to 210 nM.

In turn, `NC(=O)Cc1ccccc1CCc1nc(Nc2ccc(C(=O)N3CCNCC3)cc2)ncc1C(F)(F)F` [Compound 6, 2-(2-(2-(2-((4-(piperazine-1-carbonyl)phenyl)amino)-5-(trifluoromethyl)pyrimidin-4-yl)ethyl)phenyl)acetamide] came in with an IC50 of 62 nM.

For the molecule `Cc1cc(Nc2ncc(C(F)(F)F)c(CCc3ccccc3CC(N)=O)n2)ccc1C1CCNCC1` [Compound 11, 2-(2-(2-(2-((3-methyl-4-(piperidin-4-yl)phenyl)amino)-5-(trifluoromethyl)pyrimidin-4-yl)ethyl)phenyl)acetamide], inhibition was half-maximal at 39 nM (IC50).

Molecule `Cc1cc(Nc2ncc(C(F)(F)F)c(CCc3ccccc3CC(N)=O)n2)ccc1C1CCN(C)CC1` [Compound 12, 2-(2-(2-(2-((3-methyl-4-(1-methylpiperidin-4-yl)phenyl)amino)-5-(trifluoromethyl)pyrimidin-4-yl)ethyl)phenyl)acetamide] displayed a 50% inhibitory concentration (IC50) of 116 nM.

`Cc1cnc(Nc2ccc(C3CCNCC3)cc2)nc1CCc1ccccc1CC(N)=O` [Compound 16, 2-(2-(2-(5-methyl-2-((4-(piperidin-4-yl)phenyl)amino)pyrimidin-4-yl)ethyl)phenyl)acetamide]: half-maximal inhibition (IC50) required 214 nM.

`CC(N)c1ccc(Nc2ncc(C(F)(F)F)c(CCc3ccccc3CC(N)=O)n2)cc1` (stereo not drawn) [Compound 18, 2-(2-(2-(2-(4-(1-aminoethyl)phenylamino)-5-(trifluoromethyl)pyrimidin-4-yl)ethyl)phenyl)acetamide] returned an IC50 of 18 nM.

The molecule `Cc1cnc(Nc2cccnc2)nc1CCc1ccccc1CC(N)=O` [Compound 24, 2-(2-(2-(5-methyl-2-(pyridin-3-ylamino)pyrimidin-4-yl)ethyl)phenyl)acetamide] had a 50% inhibitory concentration (IC50) of 169 nM.

As to `Cc1cnc(Nc2ccc(OC3CCNCC3)cc2)nc1CCc1ccccc1CC(N)=O` [Compound 26, 2-(2-(2-(5-methyl-2-((4-(piperidin-4-yloxy)phenyl)amino)pyrimidin-4-yl)ethyl)phenyl)acetamide], the half-maximal inhibitory concentration (IC50) worked out at 83 nM.

For `Cc1cnc(Nc2cnn(C)c2)nc1CCc1ccccc1CC(N)=O` [Compound 28, 2-(2-(2-(5-methyl-2-((1-methyl-^1H-pyrazol-4-yl)amino)pyrimidin-4-yl)ethyl)phenyl)acetamide], inhibition was half-maximal at 190 nM (IC50).

On to `Cc1cnc(Nc2ccc(C3(N)COC3)cc2)nc1CCc1ccccc1CC(N)=O` [Compound 31, 2-(2-(2-(2-(4-(3-aminooxetan-3-yl)phenylamino)-5-methylpyrimidin-4-yl)ethyl)phenyl)acetamide], for which the IC50 is 107 nM.

The molecule `Cc1cnc(Nc2cnn(C3CCNCC3)c2)nc1CCc1ccccc1CC(N)=O` [Compound 33, 2-(2-(2-(5-Methyl-2-((1-(piperidin-4-yl)-^1H-pyrazol-4-yl)amino)pyrimidin-4-yl)ethyl)phenyl)acetamide] yielded a concentration for half-maximal inhibition (IC50) of 1250 nM.

`CC(N)c1ccc(Nc2ncc(Cl)c(CCc3ccccc3CC(N)=O)n2)cc1` (stereo not drawn) [Compound 37, 2-(2-(2-(2-(4-(1-aminoethyl)phenylamino)-5-chloropyrimidin-4-yl)ethyl)phenyl)acetamide] yielded an IC50 of 26 nM.
